Calls of active or inactive are those of the source. No cut-off for these calls is given here.
Tests used:
K562 [1] = assay: Potentiation of 0.05 nM (-)-lomaiviticin A-induced cytotoxicity against human K562 cells assessed as fraction ratio affected at 10 uM after 24 hrs by cell titer-glo luminescence assay; type: functional
K562 [2] = assay: Potentiation of 0.25 nM (-)-lomaiviticin A-induced cytotoxicity against human K562 cells assessed as fraction ratio affected at 10 uM after 24 hrs by cell titer-glo luminescence assay; type: functional
K562 [3] = assay: Potentiation of 0.5 nM (-)-lomaiviticin A-induced cytotoxicity against human K562 cells assessed as fraction ratio affected at 10 uM after 24 hrs by cell titer-glo luminescence assay; type: functional
K562 [4] = assay: Potentiation of 2.5 nM (-)-lomaiviticin A-induced cytotoxicity against human K562 cells assessed as fraction ratio affected at 10 uM after 24 hrs by cell titer-glo luminescence assay; type: functional
K562 [5] = assay: Potentiation of 5 nM (-)-lomaiviticin A-induced cytotoxicity against human K562 cells assessed as fraction ratio affected at 10 uM after 24 hrs by cell titer-glo luminescence assay; type: functional
K562 [6] = assay: Potentiation of 0.025 nM (-)-lomaiviticin A-induced cytotoxicity against human K562 cells assessed as combination index at 10 uM after 24 hrs by cell titer-glo luminescence assay; type: functional
K562 [7] = assay: Potentiation of 0.05 nM (-)-lomaiviticin A-induced cytotoxicity against human K562 cells assessed as combination index at 10 uM after 24 hrs by cell titer-glo luminescence assay; type: functional
K562 [8] = assay: Potentiation of 0.25 nM (-)-lomaiviticin A-induced cytotoxicity against human K562 cells assessed as combination index at 10 uM after 24 hrs by cell titer-glo luminescence assay; type: functional
K562 [9] = assay: Potentiation of 0.5 nM (-)-lomaiviticin A-induced cytotoxicity against human K562 cells assessed as combination index at 10 uM after 24 hrs by cell titer-glo luminescence assay; type: functional
K562 [10] = assay: Potentiation of 2.5 nM (-)-lomaiviticin A-induced cytotoxicity against human K562 cells assessed as combination index at 10 uM after 24 hrs by cell titer-glo luminescence assay; type: functional
K562 [11] = assay: Potentiation of 5 nM (-)-lomaiviticin A-induced cytotoxicity against human K562 cells assessed as combination index at 10 uM after 24 hrs by cell titer-glo luminescence assay; type: functional
K562 [12] = assay: Potentiation of 0.025 nM (-)-lomaiviticin A-induced cytotoxicity against human K562 cells assessed as fraction ratio affected at 10 uM after 48 hrs by cell titer-glo luminescence assay; type: functional
K562 [13] = assay: Potentiation of 0.05 nM (-)-lomaiviticin A-induced cytotoxicity against human K562 cells assessed as fraction ratio affected at 10 uM after 48 hrs by cell titer-glo luminescence assay; type: functional
K562 [14] = assay: Potentiation of 0.25 nM (-)-lomaiviticin A-induced cytotoxicity against human K562 cells assessed as fraction ratio affected at 10 uM after 48 hrs by cell titer-glo luminescence assay; type: functional
K562 [15] = assay: Potentiation of 0.5 nM (-)-lomaiviticin A-induced cytotoxicity against human K562 cells assessed as fraction ratio affected at 10 uM after 48 hrs by cell titer-glo luminescence assay; type: functional
K562 [16] = assay: Potentiation of 2.5 nM (-)-lomaiviticin A-induced cytotoxicity against human K562 cells assessed as fraction ratio affected at 10 uM after 48 hrs by cell titer-glo luminescence assay; type: functional
K562 [17] = assay: Potentiation of 5 nM (-)-lomaiviticin A-induced cytotoxicity against human K562 cells assessed as fraction ratio affected at 10 uM after 48 hrs by cell titer-glo luminescence assay; type: functional
K562 [18] = assay: Potentiation of 0.025 nM (-)-lomaiviticin A-induced cytotoxicity against human K562 cells assessed as combination index at 10 uM after 48 hrs by cell titer-glo luminescence assay; type: functional
K562 [19] = assay: Potentiation of 0.05 nM (-)-lomaiviticin A-induced cytotoxicity against human K562 cells assessed as combination index at 10 uM after 48 hrs by cell titer-glo luminescence assay; type: functional
K562 [20] = assay: Potentiation of 0.25 nM (-)-lomaiviticin A-induced cytotoxicity against human K562 cells assessed as combination index at 10 uM after 48 hrs by cell titer-glo luminescence assay; type: functional
K562 [21] = assay: Potentiation of 0.5 nM (-)-lomaiviticin A-induced cytotoxicity against human K562 cells assessed as combination index at 10 uM after 48 hrs by cell titer-glo luminescence assay; type: functional
K562 [22] = assay: Potentiation of 2.5 nM (-)-lomaiviticin A-induced cytotoxicity against human K562 cells assessed as combination index at 10 uM after 48 hrs by cell titer-glo luminescence assay; type: functional
K562 [23] = assay: Potentiation of 5 nM (-)-lomaiviticin A-induced cytotoxicity against human K562 cells assessed as combination index at 10 uM after 48 hrs by cell titer-glo luminescence assay; type: functional
K562 [24] = assay: Cytotoxicity against human K562 cells assessed as decrease in cell viability up to 10 uM after 24 to 48 hrs by cell titer-glo luminescence assay; type: cell-based
K562 [25] = assay: Potentiation of 50 pM (-)-lomaiviticin A-induced cytotoxicity against human K562 cells assessed as decrease in cell viability at 10 uM after 24 hrs by cell titer-glo luminescence assay; type: functional
K562 [26] = assay: Potentiation of 50 pM (-)-lomaiviticin A-induced cytotoxicity against human K562 cells assessed as decrease in cell viability at 10 uM after 48 hrs by cell titer-glo luminescence assay; type: functional
K562 [27] = assay: Potentiation of 500 pM (-)-lomaiviticin A-induced cytotoxicity against human K562 cells assessed as decrease in cell viability at 10 uM after 48 hrs by cell titer-glo luminescence assay; type: functional
K562 [28] = assay: Induction of DNA double-strand breaks in human K562 cells after 24 hrs by neutral comet assay in presence of (-)-lomaiviticin A; type: functional, cell-based
K562 [29] = assay: Induction of DNA double-strand breaks in human K562 cells assessed as median tail moment at 10 uM after 24 hrs by neutral comet assay in presence of 500 pM (-)-lomaiviticin A; type: functional
K562 [30] = assay: Induction of apoptosis in human K562 cells assessed as gammaH2AX/53BP1 levels at 10 uM after 48 hrs by DAPI staining based immunofluorescence microscopy in presence of 25 to 250 pM (-)-lomaiviticin A; type: functional, cell-based
K562 [31] = assay: Induction of apoptosis in human K562 cells assessed as gammaH2AX/53BP1 levels at 10 uM after 48 hrs by DAPI staining based immunofluorescence microscopy; type: cell-based; settings: k562, 48 h
K562 [32] = assay: Cytotoxicity against human K562 cells assessed as decrease in cell viability up to 2.5 to 10 uM after 24 to 48 hrs by cell titer-glo luminescence assay; type: cell-based
[33] = Cytotoxicity against human K562 cells assessed as decrease in cell viability after 24 hrs by cell titer-glo luminescence assay; type: cell-based; settings: read-out: ED50
[34] = Cytotoxicity against human K562 cells assessed as decrease in cell viability after 48 hrs by cell titer-glo luminescence assay; type: cell-based; settings: read-out: ED50
K562 [35] = assay: Potentiation of 0.025 nM (-)-lomaiviticin A-induced cytotoxicity against human K562 cells assessed as fraction ratio affected at 10 uM after 24 hrs by cell titer-glo luminescence assay; type: functional
K562 [36] = assay: Potentiation of (-)-lomaiviticin A-induced cytotoxicity against human K562 cells assessed as (-)-lomaiviticin A ED50 at compound to (-)-lomaiviticin A ratio of 200:1 after 48 hrs by cell titer-glo luminescence assay (reference value: 0.23776 nM); type: functional; settings: K562, 48 h, read-out: ED50 (the source's name)
K562 [37] = assay: Potentiation of 7 nM (-)-lomaiviticin A-induced cytotoxicity against human K562 cells assessed as combination index at 1.4 uM after 48 hrs by cell titer-glo luminescence assay; type: functional
K562 [38] = assay: Cytotoxicity against human K562 cells assessed as decrease in cell viability after 24 to 48 hrs by cell titer-glo luminescence assay; type: cell-based
K562 [39] = assay: Potentiation of 0.025 nM (-)-lomaiviticin A-induced cytotoxicity against human K562 cells assessed as fraction ratio affected at 0.005 uM after 48 hrs by cell titer-glo luminescence assay; type: functional
K562 [40] = assay: Potentiation of 0.125 nM (-)-lomaiviticin A-induced cytotoxicity against human K562 cells assessed as fraction ratio affected at 0.025 uM after 48 hrs by cell titer-glo luminescence assay; type: functional
K562 [41] = assay: Potentiation of 0.25 nM (-)-lomaiviticin A-induced cytotoxicity against human K562 cells assessed as fraction ratio affected at 0.05 uM after 48 hrs by cell titer-glo luminescence assay; type: functional
K562 [42] = assay: Potentiation of 1.25 nM (-)-lomaiviticin A-induced cytotoxicity against human K562 cells assessed as fraction ratio affected at 0.25 uM after 48 hrs by cell titer-glo luminescence assay; type: functional
K562 [43] = assay: Potentiation of 2.5 nM (-)-lomaiviticin A-induced cytotoxicity against human K562 cells assessed as fraction ratio affected at 0.5 uM after 48 hrs by cell titer-glo luminescence assay; type: functional
K562 [44] = assay: Potentiation of 7 nM (-)-lomaiviticin A-induced cytotoxicity against human K562 cells assessed as fraction ratio affected at 1.4 uM after 48 hrs by cell titer-glo luminescence assay; type: functional
K562 [45] = assay: Potentiation of 0.025 nM (-)-lomaiviticin A-induced cytotoxicity against human K562 cells assessed as combination index at 0.005 uM after 48 hrs by cell titer-glo luminescence assay; type: functional
K562 [46] = assay: Potentiation of 0.125 nM (-)-lomaiviticin A-induced cytotoxicity against human K562 cells assessed as combination index at 0.025 uM after 48 hrs by cell titer-glo luminescence assay; type: functional
K562 [47] = assay: Potentiation of 0.25 nM (-)-lomaiviticin A-induced cytotoxicity against human K562 cells assessed as combination index at 0.05 uM after 48 hrs by cell titer-glo luminescence assay; type: functional
K562 [48] = assay: Potentiation of 1.25 nM (-)-lomaiviticin A-induced cytotoxicity against human K562 cells assessed as combination index at 0.25 uM after 48 hrs by cell titer-glo luminescence assay; type: functional
K562 [49] = assay: Potentiation of 2.5 nM (-)-lomaiviticin A-induced cytotoxicity against human K562 cells assessed as combination index at 0.5 uM after 48 hrs by cell titer-glo luminescence assay; type: functional

CS(=O)(=O)c1ccc(-c2cnc(N)c(C(=O)Nc3ccccc3)n2)cc1
Ratio (K562 [1]): 0.1819 | Ratio (K562 [2]): 0.6516 | Ratio (K562 [3]): 0.814 | Ratio (K562 [4]): 0.8772 | Ratio (K562 [5]): 0.9357 | CI (K562 [6]): 0.1138 | CI (K562 [7]): 0.0774 | CI (K562 [8]): 0.06881 | CI (K562 [9]): 0.09717 | CI (K562 [10]): 0.4019 | CI (K562 [11]): 0.6748 | Ratio (K562 [12]): 0.3737 | Ratio (K562 [13]): 0.6017 | Ratio (K562 [14]): 0.9206 | Ratio (K562 [15]): 0.961 | Ratio (K562 [16]): 0.966 | Ratio (K562 [17]): 0.9837 | CI (K562 [18]): 0.2066 | CI (K562 [19]): 0.1328 | CI (K562 [20]): 0.1058 | CI (K562 [21]): 0.1448 | CI (K562 [22]): 0.6223 | CI (K562 [23]): 1.029 | Activity (K562 [24]): < 13% | Activity (K562 [25]): 18% | Activity (K562 [26]): 40% | Activity (K562 [27]): 96% | Activity (K562 [28]): Dose-dependent effect | Activity (K562 [29]): 34 | Activity (K562 [30]): Active | Activity (K562 [31]): Non-toxic | Activity (K562 [32]): Non-toxic | CC50 at 24 h [33]: 449 µM | CC50 at 48 h [34]: 71 µM | Ratio (K562 [35]): 0.08806

Cn1c(=O)n(-c2ccc(C(C)(C)C#N)cc2)c2c3cc(-c4cnc5ccccc5c4)ccc3ncc21 [DACTOLISIB]
EC50 (K562 [36]): 0.0202 µM | CC50 at 48 h [34]: 0.0489 µM | CI (K562 [37]): 0.3291 | Activity (K562 [38]): Dose-dependent effect | Ratio (K562 [39]): 0.2836 | Ratio (K562 [40]): 0.4369 | Ratio (K562 [41]): 0.6128 | Ratio (K562 [42]): 0.9514 | Ratio (K562 [43]): 0.9739 | Ratio (K562 [44]): 0.9929 | CI (K562 [45]): 8.288 | CI (K562 [46]): 2.3513 | CI (K562 [47]): 0.8101 | CI (K562 [48]): 0.3514 | CI (K562 [49]): 0.3901

From ChEMBL document CHEMBL3808308, “Synergistic potentiation of (-)-lomaiviticin A cytotoxicity by the ATR inhibitor VE-821” (Bioorg Med Chem Lett, 2016)
